PubChem BioAssay AID256 (DTP/NCI, 2004)
Several values for one entry are separate records, joined by “and”; a condition that tells them apart may be missing. Identical values can stand only once. Toxic doses and inconclusive results are not listed. The calls were made as follows: active = survival T/C of 150% or more; inactive = T/C below 125% in these data.

System: CD2F1 mice, L1210 leukemia ip, survival T/C
Assay: NCI In Vivo Anticancer Drug Screen. Data for tumor model L1210 Leukemia (intraperitoneal) in CD2F1 (CDF1) mice
Details: higher = longer survival
How it was run: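 Antitumor effect is scored in animals hosting a serially transplanted tumor. Values compare compound-dosed animals against vehicle-only controls as a simple quotient.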

[1] = endpoint: mean survival time, dose: 100.0 mg/kg/injection, schedule: Q01DX001 (ip), vehicle: Klucel (hydroxypropylcellulose) (HPC)
[2] = endpoint: mean survival time, dose: 100.0 mg/kg/injection, schedule: Q04DX002 (ip), vehicle: saline with Tween-80
[3] = endpoint: mean survival time, dose: 200.0 mg/kg/injection, schedule: Q04DX002 (ip), vehicle: saline with Tween-80
[4] = endpoint: mean survival time, dose: 75.0 mg/kg/injection, schedule: Q01DX001 (ip), vehicle: other
[5] = endpoint: mean survival time, dose: 150.0 mg/kg/injection, schedule: Q01DX001 (ip), vehicle: other
[6] = endpoint: mean survival time, dose: 300.0 mg/kg/injection, schedule: Q01DX001 (ip), vehicle: other
[7] = endpoint: mean survival time, dose: 100.0 mg/kg/injection, schedule: Q04DX003 (ip), vehicle: saline with Tween-80
[8] = endpoint: mean survival time, dose: 200.0 mg/kg/injection, schedule: Q04DX003 (ip), vehicle: saline with Tween-80
[9] = endpoint: mean survival time, dose: 400.0 mg/kg/injection, schedule: Q04DX003 (ip), vehicle: saline with Tween-80
[10] = endpoint: mean survival time, dose: 100.0 mg/kg/injection, schedule: Q01DX009 (ip), vehicle: saline with Tween-80
[11] = endpoint: mean survival time, dose: 200.0 mg/kg/injection, schedule: Q01DX009 (ip), vehicle: saline with Tween-80
[12] = endpoint: mean survival time, dose: 400.0 mg/kg/injection, schedule: Q01DX009 (ip), vehicle: saline with Tween-80

Measured: T/C

CCOC(=O)Nc1cc2c(c(N)n1)N=C(c1ccccc1)CO2
inactive: endpoint: median survival time, dose: 25.0 mg/kg/injection, schedule: Q01DX009 (ip), vehicle: saline with Tween-80 97 % of control | endpoint: median survival time, dose: 50.0 mg/kg/injection, schedule: Q01DX009 (ip), vehicle: saline with Tween-80 117 % of control and 107 % of control and 108 % of control | endpoint: median survival time, dose: 100.0 mg/kg/injection, schedule: Q01DX009 (ip), vehicle: saline with Tween-80 122 % of control and 112 % of control (2×) | endpoint: median survival time, dose: 200.0 mg/kg/injection, schedule: Q01DX009 (ip), vehicle: saline with Tween-80 115 % of control and 116 % of control and 117 % of control

NCc1ccc(OCc2nc(N)nc(N)c2-c2ccc(Cl)c(Cl)c2)cc1
inactive: endpoint: mean survival time, dose: 100.0 mg/kg/injection, schedule: Q01DX001 (ip), vehicle: saline with Tween-80 92 % of control | endpoint: mean survival time, dose: 200.0 mg/kg/injection, schedule: Q01DX001 (ip), vehicle: saline with Tween-80 91 % of control

O=C(Nc1ccc(Cl)cc1)Oc1ccc2ccccc2c1
inactive: endpoint: mean survival time, dose: 100.0 mg/kg/injection, schedule: Q01DX001 (ip), vehicle: saline 96 % of control | endpoint: mean survival time, dose: 200.0 mg/kg/injection, schedule: Q01DX001 (ip), vehicle: saline 94 % of control | endpoint: mean survival time, dose: 400.0 mg/kg/injection, schedule: Q01DX001 (ip), vehicle: saline 111 % of control

O=C(CC(C(=O)c1ccccc1)c1ccccc1)c1ccccc1 (configuration not stated)
inactive: [1] 90 % of control | endpoint: mean survival time, dose: 200.0 mg/kg/injection, schedule: Q01DX001 (ip), vehicle: Klucel (hydroxypropylcellulose) (HPC) 101 % of control | endpoint: mean survival time, dose: 400.0 mg/kg/injection, schedule: Q01DX001 (ip), vehicle: Klucel (hydroxypropylcellulose) (HPC) 98 % of control

O=c1c([N+](=O)[O-])c[nH]c2ccccc12
inactive: [2] 95 % of control | [3] 95 % of control | endpoint: mean survival time, dose: 400.0 mg/kg/injection, schedule: Q04DX002 (ip), vehicle: saline with Tween-80 103 % of control

Nc1nc(N)c(CCCOc2ccc([N+](=O)[O-])cc2Cl)c(N)n1
inactive: endpoint: mean survival time, dose: 100.0 mg/kg/injection, schedule: Q04DX002 (ip), vehicle: Klucel (hydroxypropylcellulose) (HPC) 90 % of control | endpoint: mean survival time, dose: 200.0 mg/kg/injection, schedule: Q04DX002 (ip), vehicle: Klucel (hydroxypropylcellulose) (HPC) 94 % of control | endpoint: mean survival time, dose: 400.0 mg/kg/injection, schedule: Q04DX002 (ip), vehicle: Klucel (hydroxypropylcellulose) (HPC) 90 % of control

COc1ccc2c(O)c3[n+](cc2c1OC)CCc1cc2c(cc1-3)OCO2
inactive: [4] 100 % of control | [5] 87 % of control | [6] 100 % of control

CC(C)(C)c1cc2c3c(c1)Oc1cc(C(C)(C)C)cc4c1C3(O)c1c(cc(C(C)(C)C)cc1O4)O2
inactive: endpoint: median survival time, dose: 3.12 mg/kg/injection, schedule: Q01DX009 (ip), vehicle: Klucel (hydroxypropylcellulose) (HPC) 107 % of control | endpoint: median survival time, dose: 6.25 mg/kg/injection, schedule: Q01DX009 (ip), vehicle: Klucel (hydroxypropylcellulose) (HPC) 112 % of control | endpoint: median survival time, dose: 12.5 mg/kg/injection, schedule: Q01DX009 (ip), vehicle: Klucel (hydroxypropylcellulose) (HPC) 104 % of control

CNC(=O)Oc1cccc(NC(=O)OCCOC)c1
inactive: [7] 99 % of control | [8] 99 % of control | [9] 92 % of control

O=C(NC1CCCCC1)NC1CCCCC1
inactive: [7] 100 % of control | [8] 98 % of control | [9] 93 % of control

C=CC1(C)CCN=C(CCN2CCCCC2)O1 (configuration not stated)
inactive: endpoint: mean survival time, dose: 100.0 mg/kg/injection, schedule: Q01DX001 (ip), vehicle: saline sonified 97 % of control | endpoint: mean survival time, dose: 200.0 mg/kg/injection, schedule: Q01DX001 (ip), vehicle: saline sonified 100 % of control

Cc1cc(C)c(CN)cc1C
inactive: endpoint: mean survival time, dose: 5.0 mg/kg/injection, schedule: Q01DX009 (ip), vehicle: saline with Tween-80 96 % of control | endpoint: mean survival time, dose: 10.0 mg/kg/injection, schedule: Q01DX009 (ip), vehicle: saline with Tween-80 105 % of control | endpoint: mean survival time, dose: 20.0 mg/kg/injection, schedule: Q01DX009 (ip), vehicle: saline with Tween-80 92 % of control

CN(C)CCN(C)CCN(C)CCN(C)C
inactive: endpoint: mean survival time, dose: 100.0 mg/kg/injection, schedule: Q04DX003 (ip), vehicle: saline 95 % of control | endpoint: mean survival time, dose: 200.0 mg/kg/injection, schedule: Q04DX003 (ip), vehicle: saline 97 % of control | endpoint: mean survival time, dose: 400.0 mg/kg/injection, schedule: Q04DX003 (ip), vehicle: saline 108 % of control

CN1CCSC1=S
inactive: [4] 92 % of control | [5] 96 % of control | [6] 104 % of control

S=c1[nH]c2ccccc2nc1NCc1ccccc1
inactive: endpoint: mean survival time, dose: 100.0 mg/kg/injection, schedule: Q04DX003 (ip), vehicle: other 91 % of control | endpoint: mean survival time, dose: 200.0 mg/kg/injection, schedule: Q04DX003 (ip), vehicle: other 93 % of control | endpoint: mean survival time, dose: 400.0 mg/kg/injection, schedule: Q04DX003 (ip), vehicle: other 93 % of control

NC(CC(=O)NC(=O)OCc1ccccc1)C(=O)O (configuration not stated)
inactive: [10] 100 % of control | [7] 101 % of control | [11] 102 % of control | [8] 101 % of control | [12] 102 % of control | [9] 98 % of control

CCCCS(=O)(=O)F
inactive: endpoint: mean survival time, dose: 25.0 mg/kg/injection, schedule: Q04DX002 (ip), vehicle: saline 96 % of control | endpoint: mean survival time, dose: 50.0 mg/kg/injection, schedule: Q04DX002 (ip), vehicle: saline 101 % of control

Cc1cccc[n+]1C
inactive: endpoint: mean survival time, dose: 12.5 mg/kg/injection, schedule: Q04DX003 (ip), vehicle: saline 102 % of control | endpoint: mean survival time, dose: 25.0 mg/kg/injection, schedule: Q04DX003 (ip), vehicle: saline 104 % of control | endpoint: mean survival time, dose: 50.0 mg/kg/injection, schedule: Q04DX003 (ip), vehicle: saline 100 % of control

Cc1ccoc1
inactive: endpoint: median survival time, dose: 8.3 mg/kg/injection, schedule: Q03HX015 (ip), vehicle: saline with Tween-80 101 % of control | endpoint: median survival time, dose: 16.6 mg/kg/injection, schedule: Q03HX015 (ip), vehicle: saline with Tween-80 103 % of control | endpoint: median survival time, dose: 33.3 mg/kg/injection, schedule: Q03HX015 (ip), vehicle: saline with Tween-80 117 % of control | endpoint: median survival time, dose: 66.6 mg/kg/injection, schedule: Q03HX015 (ip), vehicle: saline with Tween-80 124 % of control

O=C(c1ccccc1)C1C(c2ccccc2)C2(CCCCC2=O)C(c2ccccc2)CC1(O)c1ccccc1 (configuration not stated)
inactive: [1] 96 % of control

S=C1CCCCN1
inactive: endpoint: median survival time, dose: 25.0 mg/kg/injection, schedule: Q01DX009 (ip), vehicle: distilled water + alcohol 96 % of control | endpoint: median survival time, dose: 50.0 mg/kg/injection, schedule: Q01DX009 (ip), vehicle: distilled water + alcohol 94 % of control | endpoint: median survival time, dose: 100.0 mg/kg/injection, schedule: Q01DX009 (ip), vehicle: distilled water + alcohol 106 % of control | endpoint: median survival time, dose: 200.0 mg/kg/injection, schedule: Q01DX009 (ip), vehicle: distilled water + alcohol 112 % of control

Cc1ccc(S(=O)(=O)/C=C(/SC#N)C2CCCCC2)cc1
inactive: [10] 96 % of control | [11] 100 % of control | [12] 102 % of control

CN(C)Cc1cc(C(C)(C)C)c(O)c(C(C)(C)C)c1
inactive: endpoint: mean survival time, dose: 25.0 mg/kg/injection, schedule: Q04DX003 (ip), vehicle: saline with Tween-80 112 % of control | endpoint: mean survival time, dose: 50.0 mg/kg/injection, schedule: Q04DX003 (ip), vehicle: saline with Tween-80 108 % of control | [7] 100 % of control

CCCCCCCCCCCCCCCCCc1nnc(-c2ccccc2O)o1
inactive: endpoint: mean survival time, dose: 25.0 mg/kg/injection, schedule: Q04DX002 (ip), vehicle: saline with Tween-80 100 % of control | endpoint: mean survival time, dose: 50.0 mg/kg/injection, schedule: Q04DX002 (ip), vehicle: saline with Tween-80 103 % of control | [2] 108 % of control | [3] 112 % of control

CCCCCCCCC1SC1CCCCCCCC(=O)OCCOCCOCC (configuration not stated)
inactive: endpoint: mean survival time, dose: 100.0 mg/kg/injection, schedule: Q04DX003 (ip), vehicle: Klucel (hydroxypropylcellulose) (HPC) 104 % of control | endpoint: mean survival time, dose: 200.0 mg/kg/injection, schedule: Q04DX003 (ip), vehicle: Klucel (hydroxypropylcellulose) (HPC) 104 % of control | endpoint: mean survival time, dose: 400.0 mg/kg/injection, schedule: Q04DX003 (ip), vehicle: Klucel (hydroxypropylcellulose) (HPC) 102 % of control
